Test results from US10744351B2 (priority 2009, dated 2020).

Test system: influenza virus (influenza A/Kitakyusyu/159/93(H3N2))
Type: biochemical

Row | Compound | HA titer
1 | [Cu+].[I-] [COPPER(I) IODIDE, copper(I) iodide] | 16
2 | N#C[S-].[Cu+] [COPPER(I) THIOCYANATE, copper(I) thiocyanate] | 2
3 | [I][Pd][I] [PALLADIUM(II) IODIDE, palladium(II) iodide] | 4
4 | [I-].[I-].[Pt+2] [PLATINUM(II) IODIDE, platinum(II) iodide] | <2
5 | silver(I) iodide | 64
